Data on one molecule can be found in ChEMBL document CHEMBL5579815, “Novel angiogenesis inhibitors with superoxide anion radical amplification effect: Surmounting the Achilles' heels of angiogenesis inhibitors and photosensitizers” (Eur J Med Chem, 2024).

Calls of active or inactive are those of the source. No cut-off for these calls is given here.

Data set [1] concerns A549. Nature of the data set: Cytotoxicity against human A549 cells assessed as reduction in cell viability at 0.008 to 1 uM preincubated for 24 hrs under hypoxic condition followed by media removal and irradiated with 650 nm 10 mW/cm2 light for 15 mins under hypoxic condition prior to media replacement and measured after 24 hrs by MTT assay. Format: functional, cell-based. The note with it: dose 0.008-1 µM.

Data set [2] has as its system SK-MEL-28. The experiment in a line: Induction of apoptosis in human SK-MEL-28 cells assessed as early apoptotic cells at 0.5 uM preincubated for 24 hrs under normoxic condition followed by media removal and irradiated with 650 nm 10 mW/cm2 light for 15 mins under normoxic condition by Annexin V-FITC/propidium iodide staining based flow cytometry (reference value: 1.8%). Format: functional. A general note: Flow cytometry measures light scatter and fluorescence of single cells or particles in a stream.

Data set [3] has as its system SK-MEL-28. The experiment in a line: Induction of apoptosis in human SK-MEL-28 cells assessed as viable cells at 0.5 uM preincubated for 24 hrs under hypoxic condition followed by media removal and irradiated with 650 nm 10 mW/cm2 light for 15 mins under hypoxic condition by Annexin V-FITC/propidium iodide staining based flow cytometry (reference value: 93.62%). It counts as functional. The note with it: SK-MEL-28, light or radiation study, read-out: Activity.

In data set [4] the test system is SK-MEL-28. The experiment in a line: Induction of apoptosis in human SK-MEL-28 cells assessed as necrotic cells at 2 uM preincubated for 24 hrs under normoxic condition followed by media removal and irradiated with 650 nm 10 mW/cm2 light for 15 mins under normoxic condition by Annexin V-FITC/propidium iodide staining based flow cytometry (reference value: 2.63%). It counts as functional.

In data set [5] the test system is SK-MEL-28. Nature of the data set: Induction of apoptosis in human SK-MEL-28 cells assessed as early apoptotic cells at 2 uM preincubated for 24 hrs under normoxic condition followed by media removal and irradiated with 650 nm 10 mW/cm2 light for 15 mins under normoxic condition by Annexin V-FITC/propidium iodide staining based flow cytometry (reference value: 1.8%). It counts as functional.

The subject of data set [6] is SK-MEL-28. The experiment in a line: Cytotoxicity against human SK-MEL-28 cells assessed as reduction in cell viability preincubated for 24 hrs under hypoxic condition followed by media removal and irradiated with 650 nm 10 mW/cm2 light for 15 mins under hypoxic condition prior to media replacement and measured after 24 hrs by MTT assay. Format: functional, cell-based. The note with it: SK-MEL-28, light or radiation study. In general terms: Tetrazolium dyes change colour on reduction, which living cells bring about.

In data set [7] the test system is SK-MEL-28. The experiment in a line: Induction of apoptosis in human SK-MEL-28 cells assessed as late apoptotic cells at 0.5 uM preincubated for 24 hrs under hypoxic condition followed by media removal and irradiated with 650 nm 10 mW/cm2 light for 15 mins under hypoxic condition by Annexin V-FITC/propidium iodide staining based flow cytometry (reference value: 1.95%). It counts as functional.

Data set [8] has as its system SK-MEL-28. Nature of the data set: Induction of apoptosis in human SK-MEL-28 cells assessed as late apoptotic cells at 0.5 uM preincubated for 24 hrs under normoxic condition followed by media removal and irradiated with 650 nm 10 mW/cm2 light for 15 mins under normoxic condition by Annexin V-FITC/propidium iodide staining based flow cytometry (reference value: 1.95%). Format: functional.

Data set [9] can be described thus: Induction of ROS generation in methanol solution assessed as increase in superoxide anion radical level by measuring fold increase in DHR123 fluorescence intensity at 10 uM irradiated with 650 nm 10 mW/cm2 light for upto 15 mins by DHR123 probe based fluorescence spectra analysis relative to control. Format: functional.
A short description of data set [10]: Induction of ROS generation in methanol solution assessed as increase in singlet oxygen level by measuring reduction in ABDA absorption peak at 10 uM irradiated with 650 nm 10 mW/cm2 light for upto 9 mins by ABDA probe based UV-vis absorption spectra analysis. It counts as functional.
The subject of data set [11] is SK-MEL-28. Nature of the data set: Induction of apoptosis in human SK-MEL-28 cells assessed as viable cells at 2 uM preincubated for 24 hrs under normoxic condition followed by media removal and irradiated with 650 nm 10 mW/cm2 light for 15 mins under normoxic condition by Annexin V-FITC/propidium iodide staining based flow cytometry (reference value: 93.62%). Format: functional. The note with it: SK-MEL-28, light or radiation study, read-out: Activity.

Data set [12] can be described thus: Induction of ROS generation in methanol solution assessed as reduction in DPBF absorption peak at 10 uM irradiated with 650 nm 10 mW/cm2 light for upto 9 mins by DPBF probe based UV-vis absorption spectra analysis. It counts as functional.
The test system of data set [13] is SK-MEL-28. Nature of the data set: Induction of apoptosis in human SK-MEL-28 cells assessed as necrotic cells at 0.5 uM preincubated for 24 hrs under normoxic condition followed by media removal and irradiated with 650 nm 10 mW/cm2 light for 15 mins under normoxic condition by Annexin V-FITC/propidium iodide staining based flow cytometry (reference value: 2.63%). It counts as functional.

In the next data set the test system is U-87 MG. The experiment in a line: Cytotoxicity against human U87 cells assessed as reduction in cell viability at 0.008 to 1 uM preincubated for 24 hrs under normoxic condition followed by media removal and irradiated with 650 nm 10 mW/cm2 light for 15 mins under normoxic condition prior to media replacement and measured after 24 hrs by MTT assay. It counts as functional, cell-based. The following applies: U-87MG ATCC, dose 0.008-1 µM.

The subject of data set [14] is SK-MEL-28. The experiment in a line: Induction of apoptosis in human SK-MEL-28 cells assessed as viable cells at 0.5 uM preincubated for 24 hrs under normoxic condition followed by media removal and irradiated with 650 nm 10 mW/cm2 light for 15 mins under normoxic condition by Annexin V-FITC/propidium iodide staining based flow cytometry (reference value: 93.62%). The following applies: SK-MEL-28, light or radiation study, read-out: Activity. Format: functional.

Data set [15] deals with A549. Nature of the data set: Cytotoxicity against human A549 cells assessed as reduction in cell viability at 0.008 to 1 uM preincubated for 24 hrs under normoxic condition followed by media removal and irradiated with 650 nm 10 mW/cm2 light for 15 mins under normoxic condition prior to media replacement and measured after 24 hrs by MTT assay. It counts as functional, cell-based. The following applies: dose 0.008-1 µM.

For data set [16], the system named is SK-MEL-28. Nature of the data set: Cytotoxicity against human SK-MEL-28 cells assessed as reduction in cell viability preincubated for 24 hrs under normoxic condition followed by media removal and irradiated with 650 nm 10 mW/cm2 light for 15 mins under normoxic condition prior to media replacement and measured after 24 hrs by MTT assay. Format: functional, cell-based. The following applies: SK-MEL-28, light or radiation study.

For a further data set, the system named is EA.hy 926. The experiment in a line: Antiangiogenic activity in human EA.hy 926 cells assessed as reduction in cell viability at 0.008 to 1 uM preincubated for 24 hrs under hypoxic condition followed by media removal and irradiated with 650 nm 10 mW/cm2 light for 15 mins under hypoxic condition prior to media replacement and measured after 24 hrs by MTT assay. The following applies: dose 0.008-1 µM. It counts as functional, cell-based.

The subject of data set [17] is SK-MEL-28. Nature of the data set: Induction of apoptosis in human SK-MEL-28 cells assessed as early apoptotic cells at 1 uM preincubated for 24 hrs under hypoxic condition followed by media removal and irradiated with 650 nm 10 mW/cm2 light for 15 mins under hypoxic condition by Annexin V-FITC/propidium iodide staining based flow cytometry (reference value: 1.8%). It counts as functional.

In data set [18] the test system is SK-MEL-28. Nature of the data set: Induction of apoptosis in human SK-MEL-28 cells assessed as late apoptotic cells at 1 uM preincubated for 24 hrs under normoxic condition followed by media removal and irradiated with 650 nm 10 mW/cm2 light for 15 mins under normoxic condition by Annexin V-FITC/propidium iodide staining based flow cytometry (reference value: 1.95%). It counts as functional.

Data set [19] concerns SK-MEL-28. The experiment in a line: Induction of apoptosis in human SK-MEL-28 cells preincubated for 24 hrs under hypoxic condition followed by media removal and irradiated with 650 nm 10 mW/cm2 light for 15 mins under hypoxic condition by Annexin V-FITC/propidium iodide staining based flow cytometry. Format: functional, cell-based. The following applies: dose 0.5-2 µM.
Data set [20] relates to SK-MEL-28. The experiment in a line: Induction of apoptosis in human SK-MEL-28 cells preincubated for 24 hrs under normoxic condition followed by media removal and irradiated with 650 nm 10 mW/cm2 light for 15 mins under normoxic condition by Annexin V-FITC/propidium iodide staining based flow cytometry. It counts as functional, cell-based. The note with it: dose 0.5-2 µM.

The nature of data set [21]: Drug uptake in human SK-MEL-28 cells at 1 uM measured after 24 hrs by flow cytometry. It counts as ADME, cell-based. The note with it: sk-mel-28, 24 h.

By IC50 is commonly meant the concentration needed to halve the response being measured. In the case of `CCN(CC)c1ccc2nc3c4ccccc4/c(=N\CCCCCCNC(=O)c4cc(Oc5ccc(NC(=O)Nc6ccc(Cl)c(C(F)(F)F)c6)cc5)ccn4)cc-3sc2c1`, the result (with A549 [1]; in data set [12]; in the data set with U-87 MG; in the data set with A549 [15]; with EA.hy 926) was Active. Also, the Activity in the data set on SK-MEL-28 [2] came to 12.86%; in the data set on SK-MEL-28 [4] it was 6.54%; in the data set on SK-MEL-28 [5], 39.5%; in the data set on SK-MEL-28 [7], 7.05%; in the data set with SK-MEL-28 [8], 2.86%; in the data set on SK-MEL-28 [13] it was 11.1%. Besides, the Activity is 3.97% in the data set with SK-MEL-28 [17], 8.8% in the data set on SK-MEL-28 [18], “Dose-Dependent Effect” with SK-MEL-28 [19] and “Dose-Dependent Effect” in the data set with SK-MEL-28 [20]. Further, the viability at 0.5 µM amounted to 78.3% in the data set on SK-MEL-28 [3] and 73.2% in the data set on SK-MEL-28 [14]. Besides, the IC50 in the data set with SK-MEL-28 [6] was 158 nM; in the data set on SK-MEL-28 [16], 100 nM. Also, the fold change (FC) in data set [9] came to 6.6. The result in data set [10] was inactive. Moreover, the viability at 2 µM in the data set on SK-MEL-28 [11] turned out to be 27.2%. Also, the Drug uptake entry in data set [21] is recorded as “Active”.
